In one data set the target is T1, PepVSpn (Streptococcus pneumoniae, UniProt A0A0H2UP69).
T1 construct: gene pepV; purified ortholog, probably His-tagged from E. coli BL21(DE3); dimer only
T1 sequence (A0A0H2UP69 1-466): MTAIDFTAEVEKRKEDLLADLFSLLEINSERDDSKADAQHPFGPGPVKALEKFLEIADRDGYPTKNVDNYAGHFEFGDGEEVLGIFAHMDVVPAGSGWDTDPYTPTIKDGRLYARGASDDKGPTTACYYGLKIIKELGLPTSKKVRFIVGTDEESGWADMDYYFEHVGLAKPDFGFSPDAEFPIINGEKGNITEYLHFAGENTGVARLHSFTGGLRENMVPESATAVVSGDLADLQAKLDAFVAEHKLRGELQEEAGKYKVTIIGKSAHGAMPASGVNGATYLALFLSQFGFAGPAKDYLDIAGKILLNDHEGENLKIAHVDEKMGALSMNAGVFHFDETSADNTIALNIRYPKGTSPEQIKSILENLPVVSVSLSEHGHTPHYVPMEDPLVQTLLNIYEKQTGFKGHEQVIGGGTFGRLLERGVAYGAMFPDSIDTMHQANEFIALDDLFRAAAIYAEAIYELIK
Briefly: Cd-ninhydrin colorimetric dipeptidase assay, […] nm. Type of data set: biochemical. To be noted: 25 mM Tris pH 7.5, 2 mM MnCl2, 5 mM TCEP, 37 °C.

The next data set deals with T2, PepVEpi (Staphylococcus epidermidis, UniProt Q5HNF9).
T2 construct: gene SERP1310; purified ortholog, probably His-tagged from E. coli BL21(DE3); multimers beyond dimer
T2 sequence (Q5HNF9 1-469): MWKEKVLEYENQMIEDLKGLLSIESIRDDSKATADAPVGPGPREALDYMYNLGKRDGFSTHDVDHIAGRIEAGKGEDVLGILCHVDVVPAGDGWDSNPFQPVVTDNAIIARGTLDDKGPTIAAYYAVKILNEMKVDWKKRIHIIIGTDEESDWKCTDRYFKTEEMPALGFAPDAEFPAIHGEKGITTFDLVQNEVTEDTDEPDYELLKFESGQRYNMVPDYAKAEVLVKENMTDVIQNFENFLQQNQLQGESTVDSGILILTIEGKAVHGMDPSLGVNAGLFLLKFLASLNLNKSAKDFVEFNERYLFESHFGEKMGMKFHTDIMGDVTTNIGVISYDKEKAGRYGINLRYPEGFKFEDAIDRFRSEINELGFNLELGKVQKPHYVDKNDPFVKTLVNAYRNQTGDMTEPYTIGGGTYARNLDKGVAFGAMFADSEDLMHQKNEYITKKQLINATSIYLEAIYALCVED
As to the kind of experiment: Cd-ninhydrin colorimetric dipeptidase assay, […] nm. Type of data set: biochemical. The note with it: 25 mM Tris pH 7.5, 2 mM MnCl2, 5 mM TCEP, 37 °C.

The target of the next data set is T3, PepVBsub (Bacillus subtilis, UniProt O34944).
T3 construct: gene ytjP; purified ortholog, probably His-tagged from E. coli BL21(DE3); multimers beyond dimer
T3 sequence (O34944 1-463): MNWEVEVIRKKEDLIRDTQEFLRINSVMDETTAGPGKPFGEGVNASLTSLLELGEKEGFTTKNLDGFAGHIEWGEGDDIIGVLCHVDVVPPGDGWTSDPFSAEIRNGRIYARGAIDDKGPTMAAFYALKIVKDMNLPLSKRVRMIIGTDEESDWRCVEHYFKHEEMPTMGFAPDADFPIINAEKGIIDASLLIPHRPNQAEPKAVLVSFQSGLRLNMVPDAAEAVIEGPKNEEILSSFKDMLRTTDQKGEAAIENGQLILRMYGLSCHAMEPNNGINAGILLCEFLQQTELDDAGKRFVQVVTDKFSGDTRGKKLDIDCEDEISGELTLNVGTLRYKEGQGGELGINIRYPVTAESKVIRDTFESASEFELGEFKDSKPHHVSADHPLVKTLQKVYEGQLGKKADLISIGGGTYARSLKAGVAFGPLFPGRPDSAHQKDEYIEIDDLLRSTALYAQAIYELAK
Briefly: Cd-ninhydrin colorimetric dipeptidase assay, […] nm. The class given is biochemical. To be noted: 25 mM Tris pH 7.5, 2 mM MnCl2, 5 mM TCEP, 37 °C.

The target of data set [1] is T4, PepV (staphylococcal PepV) (Staphylococcus aureus, UniProt Q5HF23).
T4 construct: gene SACOL1801; His-tagged (pSY273, pET16b-H6-pepV), E. coli BL21(DE3), Ni-NTA; dimer, tetramer and higher oligomers
T4 sequence (Q5HF23 1-469): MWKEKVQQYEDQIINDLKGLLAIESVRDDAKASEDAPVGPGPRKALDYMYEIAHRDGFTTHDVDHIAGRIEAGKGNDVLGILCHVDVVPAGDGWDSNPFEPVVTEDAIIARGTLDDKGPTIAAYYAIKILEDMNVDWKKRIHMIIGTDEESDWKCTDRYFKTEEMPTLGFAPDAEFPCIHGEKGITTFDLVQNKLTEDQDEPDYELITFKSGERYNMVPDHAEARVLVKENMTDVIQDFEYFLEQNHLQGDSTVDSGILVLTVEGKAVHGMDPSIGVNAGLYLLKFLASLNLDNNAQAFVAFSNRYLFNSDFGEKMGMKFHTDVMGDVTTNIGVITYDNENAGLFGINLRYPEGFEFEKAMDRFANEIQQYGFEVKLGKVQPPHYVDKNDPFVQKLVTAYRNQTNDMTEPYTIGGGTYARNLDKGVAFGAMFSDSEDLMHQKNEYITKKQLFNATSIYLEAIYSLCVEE
As to the kind of experiment: Cd-ninhydrin colorimetric dipeptidase assay, […] nm. The class given is biochemical. To be noted: 25 mM Tris pH 7.5, 2 mM MnCl2, 5 mM TCEP, 37 °C.

The target in data set [2] is PepV (Staphylococcus aureus), recombinant His-PepV (Staphylococcus aureus). Briefly: native gel or EMSA; purified proteins, alone or mixed with peptide or precursor (0.5 µM PepV, 10-fold molar excess or rising concentrations of SpA SP); NativePAGE 4%-16% gel, 5 mA, 4°C, silver stain. On the technique in general: Mobility shift assays separate free from complexed probe on a gel.

Data set [3] has the same target. Briefly: SEC; purified PepV alone or incubated with a 10-fold molar excess of peptide; Agilent SEC-3 or TSKgel Super2000 on HPLC; 0.5 M HEPES pH 7.6, 150 mM NaCl; 0.35 mL/min; absorbance at 280 nm. For orientation: SEC sorts molecules by how far they enter the pores of the column.
Data set [4] concerns the molecule itself. As to the kind of experiment: native gel or EMSA; purified proteins, alone or mixed with peptide or precursor (0.5 µM PepV, 10-fold molar excess or rising concentrations of SpA SP); NativePAGE 4%-16% gel, 5 mA, 4°C, silver stain.

“And” between values parts separate entries of the source, which are not always exact repeats. Equal values may be shown once. Peptide text beside a SMILES is read from it.

As to `C[C@H](N)C(=O)N[C@@H](C)C(=O)O` [Ala-Ala] (H-Ala-Ala-OH), the “Cd-ninhydrin colorimetric dipeptidase assay, 507 nm” value was “performed a colorimetric ninhydrin dipeptidase assay using Ala-Ala as the substrate” on PepVSpn, “performed a colorimetric ninhydrin dipeptidase assay using Ala-Ala as the substrate” on PepVEpi, “performed a colorimetric ninhydrin dipeptidase assay using Ala-Ala as the substrate” on PepVBsub and “we assessed the enzymatic activity of PepV in the presence of the SpA SP” in data set [1].
As to “SpA SP (signal peptide of staphylococcal protein A)”, the concentration of SpA SP at which the tetrameric and oligomeric PepV species diminish in data set [2] amounted to 300 nM.
For orientation: stoichiometry N means a count of units in the complex or per binding partner. As for “PepV (Staphylococcus aureus), recombinant His-PepV (enzyme)”, the stoichiometry N in data set [3] is 2 and 4; in data set [2], 2 and 4.

B1: E. coli PepT (enzyme, Escherichia coli, UniProt P29745 1-408, looked up)
chain: MDKLLERFLNYVSLDTQSKAGVRQVPSTEGQWKLLHLLKEQLEEMGLINVTLSEKGTLMATLPANVPGDIPAIGFISHVDTSPDCSGKNVNPQIVENYRGGDIALGIGDEVLSPVMFPVLHQLLGQTLITTDGKTLLGADDKAGIAEIMTALAVLQQKKIPHGDIRVAFTPDEEVGKGAKHFDVDAFDARWAYTVDGGGVGELEFENFNAASVNIKIVGNNVHPGTAKGVMVNALSLAARIHAEVPADESPEMTEGYEGFYHLASMKGTVERADMHYIIRDFDRKQFEARKRKMMEIAKKVGKGLHPDCYIELVIEDSYYNMREKVVEHPHILDIAQQAMRDCDIEPELKPIRGGTDGAQLSFMGLPCPNLFTGGYNYHGKHEFVTLEGMEKAVQVIVRIAELTAQRK
notes: PepT of Escherichia coli, found with Foldseek as a protein structurally similar to PepV; The methods speak of recombinant His-tagged proteins from E. coli BL21(DE3); the construct of PepT is not described; also called Esherichia coli PepT; source: purified
Regarding B1, the “stoichiometry N” value in data set [4] was determined as 4.

These data come from publication PMC12671168, “The signal peptide of staphylococcal protein A alters the multimeric states of PepV” (Microbiology Spectrum, 2025).
